Assay results reported in patent publication US20240300940A1, “Phenothiazinyl Compounds and Uses” (Prosetta Biosciences, Inc., priority 2023, published 2024).

Assays:
[1] = test system: Sensitive strain; experiment: Cross resistance test (MIC); settings: read-out: MIC, Sensitive strain
[2] = test system: S. pneumoniae ATCC49619; experiment: Minimum bactericidal concentration assay; assay type: cell-based; settings: Streptococcus pneumoniae
Procedure: (§1) The study was done based on CLSI document M26-A Wayne, PA: Clinical and laboratory standard institute: 1999.
(§2) After determination of a MIC in a broth system under standard conditions, measured aliquots of growth media may be sub-cultured quantitatively to solid media to assess bactericidal activity. To calculate the extent of killing at each antibiotic concentration, plates are incubated under appropriate conditions, colony counts are performed and results are compared to that of the growth control well. The accepted definition of the minimum bactericidal concentration (MBC) is the lowest concentration of test compound at which a 99.9% (3 log) or greater reduction in growth compared with the initial inoculum is observed. […] (Table 4).

[3] = test system: S. epidermidis ATCC14990; experiment: Minimum bactericidal concentration assay; assay type: cell-based; settings: Staphylococcus epidermidis
Procedure: as §1, §2

[4] = test system: E. faecalis ATCC29212; experiment: Minimum bactericidal concentration assay; assay type: cell-based; settings: Enterococcus faecalis
Procedure: as §1, §2

[5] = test system: E. faecium ATCC27270; experiment: Minimum bactericidal concentration assay; assay type: cell-based; settings: Enterococcus faecium
Procedure: as §1, §2

[6] = Mouse plasma pharmacokinetics
Procedure: For the mouse plasma pharmacokinetic analyses, the study was conducted in BALB/c mice with single dose of IV-3 mg/kg. Blood samples were collected at 10 time points/dose (0.25, 0.5, 1, 2, 4, 6, 8, 10, 12, and 24 h post dose). At each time point, blood samples were collected from 4 mice from the retro-orbital plexus. A terminal blood collection method was employed for collecting blood samples for each time point in all PK studies. […] The PK parameters were estimated by noncompartmental analysis.
Dose—mg/kg, AUC—ng. h/mL, Cmax-ng/mL, Tmax-h, Kel—1/h, Half-life-h, MRT-h, Clearance—mL/min/kg, Vd-L/kg, Bioavailability-%. IV—Intravenous, IP— Intraperitoneal, PO—Per oral.

[7] = test system: S. aureus ATCC25923; experiment: MIC assay, serial dilution; settings: Staphylococcus aureus
[8] = BALB/c, mouse, in vivo, iv, 3 mg/kg

For CC1(C)C2CN(c3ccc4nc5ccc(N6CC7C(C6)C7(C)C)cc5[s+]c4c3)CC21 (stereo not drawn) [Compound 1, 3,7-Di(6,6-dimethyl-3-azabicyclo[3.1.0]hexan-N-yl)phenothiazinium iodide], the MIC [1] was 0.25 µg/mL, the MBC [2] was 0.5 µg/mL and the MBC [3] was 1 µg/mL. It also gave an MBC [4] of 2 µg/mL, an MBC [5] of 0.5 µg/mL and an AUC(0-inf) [6, 8] of 2980 ng·h/mL. The AUC(0-t) [6, 8] was 2710 ng·h/mL, the Cmax [6, 8] was 5620 ng/mL and the MRT [6, 8] was 7 h. The Tmax [6, 8] was 4.8 min, the Vd [6, 8] was 7 L/kg and the clearance [6, 8] was 17 mL/min/kg. For the same compound, the half-life [6, 8] was 10 h, the Kel ([6]; mice, IV 3 mg/kg single dose) was 0.07 h⁻¹ and the MIC [7] was 0.25 µg/mL.
